From the NIST ThermoML archive (doi:10.1016/j.jct.2015.02.011)

Experiment: xn = mol fraction of the nth substance listed
Conditions: 100.7 kPa, Liquid; for speed of sound: Frequency=3 MHz, Sing-around technique in a fixed-path interferometer; for mass density: Vibrating tube method

CCCCn1cc[n+](C)c1.F[P-](F)(F)(F)(F)F [1-butyl-3-methylimidazolium hexafluorophosphate] + C1CCOC1
Conditions | mass density [kg/m3] | speed of sound [m/s]
293.15 K, x1 = 0.0871 | 995.952 | 1325.2
293.15 K, x1 = 0.1801 | 1081.84 | 1346.3
293.15 K, x1 = 0.2893 | 1156.12 | 1370.2
293.15 K, x1 = 0.3939 | 1209.17 | 1390.1
293.15 K, x1 = 0.4994 | 1250.52 | 1405.6
293.15 K, x1 = 0.5709 | 1274.06 | 1414.3
293.15 K, x1 = 0.7163 | 1313.42 | 1431.1
293.15 K, x1 = 0.8069 | 1333.96 | 1439.1
293.15 K, x1 = 0.9012 | 1352.78 | 1447.9
293.15 K, x1 = 1 | 1370.41 | 1454.6
298.15 K, x1 = 0.0871 | 993.083 | 1305.7
298.15 K, x1 = 0.1801 | 1078.67 | 1329.4
298.15 K, x1 = 0.2893 | 1153.55 | 1354.8
298.15 K, x1 = 0.3939 | 1206.51 | 1375.2
298.15 K, x1 = 0.4994 | 1247.95 | 1391.7
298.15 K, x1 = 0.5709 | 1270.99 | 1400.3
298.15 K, x1 = 0.7163 | 1309.95 | 1419.2
298.15 K, x1 = 0.8069 | 1330.6 | 1428.8
298.15 K, x1 = 0.9012 | 1349.01 | 1436.5
298.15 K, x1 = 1 | 1366.26 | 1442.3
303.15 K, x1 = 0.0871 | 989.595 | 1286.1
303.15 K, x1 = 0.1801 | 1076.18 | 1313.5
303.15 K, x1 = 0.2893 | 1151.06 | 1337.9
303.15 K, x1 = 0.3939 | 1204.02 | 1359.3
303.15 K, x1 = 0.4994 | 1245.06 | 1375.7
303.15 K, x1 = 0.5709 | 1268.4 | 1386.6
303.15 K, x1 = 0.7163 | 1306.96 | 1406.2
303.15 K, x1 = 0.8069 | 1327.01 | 1416.4
303.15 K, x1 = 0.9012 | 1345.27 | 1425.1
303.15 K, x1 = 1 | 1362.13 | 1430.2
308.15 K, x1 = 0.0871 | 986.865 | 1264.2
308.15 K, x1 = 0.1801 | 1073.65 | 1294.6
308.15 K, x1 = 0.2893 | 1148.53 | 1322.9
308.15 K, x1 = 0.3939 | 1201.49 | 1344.4
308.15 K, x1 = 0.4994 | 1242.03 | 1362.9
308.15 K, x1 = 0.5709 | 1265.07 | 1374.2
308.15 K, x1 = 0.7163 | 1303.84 | 1394.4
308.15 K, x1 = 0.8069 | 1323.78 | 1404.5
308.15 K, x1 = 0.9012 | 1341.44 | 1414.8
308.15 K, x1 = 1 | 1357.86 | 1418.4
313.15 K, x1 = 0.0871 | 983.099 | 1243.5
313.15 K, x1 = 0.1801 | 1072.08 | 1276.9
313.15 K, x1 = 0.2893 | 1145.97 | 1306.3
313.15 K, x1 = 0.3939 | 1198.83 | 1329.7
313.15 K, x1 = 0.4994 | 1239.66 | 1347.2
313.15 K, x1 = 0.5709 | 1261.91 | 1358.4
313.15 K, x1 = 0.7163 | 1300.27 | 1380.9
313.15 K, x1 = 0.8069 | 1320.11 | 1392.8
313.15 K, x1 = 0.9012 | 1337.58 | 1398.9
313.15 K, x1 = 1 | 1353.88 | 1406.7
318.15 K, x1 = 0.0871 | 979.072 | 1220.9
318.15 K, x1 = 0.1801 | 1069.07 | 1258.4
318.15 K, x1 = 0.2893 | 1144.86 | 1289.6
318.15 K, x1 = 0.3939 | 1197.02 | 1313.9
318.15 K, x1 = 0.4994 | 1238.26 | 1333
318.15 K, x1 = 0.5709 | 1259.52 | 1344
318.15 K, x1 = 0.7163 | 1297.6 | 1367.3
318.15 K, x1 = 0.8069 | 1316.65 | 1380.3
318.15 K, x1 = 0.9012 | 1333.97 | 1389.5
318.15 K, x1 = 1 | 1349.88 | 1395.2
323.15 K, x1 = 0.0871 | 974.942 | 1200.6
323.15 K, x1 = 0.1801 | 1067.03 | 1239.9
323.15 K, x1 = 0.2893 | 1143.59 | 1272.2
323.15 K, x1 = 0.3939 | 1195.57 | 1295.6
323.15 K, x1 = 0.4994 | 1235.58 | 1319.5
323.15 K, x1 = 0.5709 | 1256.95 | 1330.6
323.15 K, x1 = 0.7163 | 1294.51 | 1355.4
323.15 K, x1 = 0.8069 | 1312.86 | 1368.5
323.15 K, x1 = 0.9012 | 1329.92 | 1378.6
323.15 K, x1 = 1 | 1345.57 | 1384.1
